Measured values taken from patent publication US6538028B1, “Method for inhibiting complement activation” (Vanderbilt University, priority 2000, dated 2003).
Where “and” joins values, the source holds several entries; their conditions need not be identical. Identical values can stand only once. Like-named read-outs stand apart in the source and are kept apart here. Marks after values point to notes of the source that are not given here.

Tests used:
[1] = system: piglet lungs perfused with human blood
Procedure: […] piglets (4-6 kg) were used in an established in situ ex vivo isolated lung perfusion model. Piglet lungs were perfused with unmodified human blood or blood treated with either aurintricarboxylic acid (ATA, 0.5 mg/mL; GPIb inhibitor), SC52012A (SC, 0.2 μg/mL; GPIIb/IIIa antagonist, G.D. Searle & Co. of Chicago, Ill.), or both. Thus, experimental groups received either 500 mg of ATA, 200 μg of SC52012A, or both drugs added to fresh human blood perfusate (pooled from three donors) prior to lung perfusion, while control groups received unmodified blood.
Pulmonary vascular resistance (PVR) was calculated from pulmonary artery land vein pressures and flow. Pulmonary vein effluent was collected serially for comparison of complement activation (C3a), mast cell activation (histamine) and thromboxane production (TXB2) between groups. Survival endpoints were loss of transpulmonary flow, loss of oxygenation across the lungs, frank tracheal edema, and loss of perfusate volume (˜1L) into lung parenchyma.

[2] = system: piglet lungs perfused with heparinized human blood
Procedure: In an established in situ, ex vivo model, piglet lungs were perfused with either heparinized (3,000 U/L) human blood or with blood additionally pretreated with 140 mg/L of bivalirudin (a semisynthetic analogue of hirudin). Pulmonary vein effluent was collected serially for measurement of complement activation (C3a), mast cell activation (histamine), and thrombin formation (F1+2). Survival endpoints were loss of transpulmonary blood flow, loss of oxygenation across the lungs, and sequestration of perfusate volume (˜1 L) into the lung. Statistical comparisons were made using the 2-tailed t-test.

complement (C3a, C5b-9) = settings: for C3a Mean: mean of two samples; for C3a / C5b-9: single sample
Procedure: Platelet poor plasma (PPP—Example 4) and platelet rich plasma (PRP—Example 5) was prepared from human heparinized blood. Human plasma was treated with ATA (0.5 mg/ml), SC (0.5 μg/ml), ATA+SC, bivalirudin (HIRULOG®, 0.1 g/L), or water (negative control) and then incubated in presence of zymosan (10 mg/mL) or cobra venom factor (CVF, 1 or 5 U/mL) to activate complement (negative control is water), for one hour at 37° C. with shaking. Then, the samples were subjected to centrifugation at 10,000 g for 45 minutes. The supernatant was then frozen in small aliquots at −70° C. C3a and C5b-9 levels were then assayed using commercial ELISA kits (Quidel).

[3] = PPP, CVF 1U, listed as HIRULOG ®

O=C(O)C1=CC(=C(c2ccc(O)c(C(=O)O)c2)c2ccc(O)c(C(=O)O)c2)C=CC1=O [ATA, aurintricarboxylic acid]
ΔC3a, 1 min, μg/mL (Mean ± SEM) ([1]; 1 min, pulmonary vein effluent): 0.30* μg/mL
Platelet sequestration at 10 min ([1]; 10 min, controls 89%): 51%
ΔC3a, 10 min, μg/mL (Mean ± SEM) ([1]; 10 min, pulmonary vein effluent): 1.81 µg/mL
median survival ([1]; control 12 min): 25 min
Median Survival in min (95% conf int) ([1]; pig lung perfused with human blood, ATA 0.5 mg/mL, SC 0.2 μg/mL): 25* min

bivalirudin
thrombin production limited (as measured by F1+2) [2]: more than 90%
ΔC3a 1 min μg/ml (± SEM) ([2]; 1 min): 0.82 (0.8)* μg/ml
PVR cm H2O/mL/min 5 min (± SEM) ([2]; 5 min): 0.16 (.05)* cm H2O/mL/min
Δ histamine 10 min nM (± SEM) ([2]; 10 min): 21 (4)* nM
ΔC3a 10 min μg/ml (± SEM) ([2]; 10 min): 1.97 (1) μg/ml
ΔF1 + 2 10 min nM (± SEM) ([2]; 10 min, thrombin formation): 0.5 (0.8)* nM
Survival Min (± SEM) ([2]; bivalirudin 140 mg/L in heparinized human blood): 77 (22)* Min
mean survival ([2]; control 8 minutes): 77 min
Complement activation ([2]; in words): significantly blunted
histamine release ([2]; in words): significantly decreased
intrapulmonary platelet sequestration ([2]; in words): significantly blunted
rise in PVR ([2]; in words): significantly decreased
C5b-9 Mean (complement (C3a, C5b-9); PPP, CVF 1U): 917 ng/mL
C3a Mean (complement (C3a, C5b-9); PPP, CVF 1U): 1350 ng/mL
C3a (complement (C3a, C5b-9); [3]): 1250 ng/mL and 1450 ng/mL
C5b-9 (complement (C3a, C5b-9); [3]): 890 ng/mL and 943 ng/mL
C5b-9 Mean (complement (C3a, C5b-9); PPP, water (no activator)): 26 ng/mL
C3a Mean (complement (C3a, C5b-9); PPP, water (no activator)): 548 ng/mL
C5b-9 (complement (C3a, C5b-9); PPP, water (no activator)): 26 ng/mL
C3a (complement (C3a, C5b-9); PPP, water (no activator), 1 h 37° C., listed as HIRULOG ®): 590 ng/mL and 505 ng/mL
C5b-9 Mean (complement (C3a, C5b-9); PRP, CVF 1U): 842 ng/mL
C3a Mean (complement (C3a, C5b-9); PRP, CVF 1U): 1650 ng/mL
C5b-9 (complement (C3a, C5b-9); PRP, CVF 1U): 842 ng/mL
C3a (complement (C3a, C5b-9); PRP, CVF 1U, listed as HIRULOG ®): 1800 ng/mL and 1500 ng/mL
C5b-9 Mean (complement (C3a, C5b-9); PRP, water (no activator)): 126 ng/mL
C3a Mean (complement (C3a, C5b-9); PRP, water (no activator)): 435 ng/mL
C5b-9 (complement (C3a, C5b-9); PRP, water (no activator)): 126 ng/mL
C3a (complement (C3a, C5b-9); PRP, water (no activator), 1 h 37° C., listed as HIRULOG ®): 490 ng/mL and 380 ng/mL
